This is an account of results in patent publication US20130004579A1, “Use of Plant Lectins to Target Leukocytes” (priority 2011, published 2013).

One experiment has as its system C57BL/6 BMDCs. The experiment is described as follows: Flow cytometry uptake of lectin-conjugated NR-PS particles by live BMDCs (Example 6). Particulars: 30 minute incubation; lectin 100 μg/ml. The class given is cell-based, mouse. As to the method: (§1) C57BL/6 BMDCs and iBMMs were isolated and cultured as described above at a density of 1×10^6 cells/ml in a 96 well U-bottomed plate in 100 μl complete RPMI 1640 medium with 10 ng/ml GM-CSF. Cells were stimulated for 10 or 30 minutes at 37° C. with NR-PS particles (5, 50 or 100 μg/ml) or NR-PS particles (5, 50 or 100 μg/ml) conjugated with biotinylated UEA-1 (100 μg/ml), biotinylated SBA (100 μg/ml), biotinylated PHA-E (100 μg/ml), biotinylated PHA-L (100 μg/ml) or biotinylated DSL (100 μg/ml). Cells were then scraped into FACS tubes, washed in FACS buffer, centrifuged at 1200 rpm for 5 minutes (×3) and resuspended in 200 μl of FACS buffer.
(§2) A FACSCanto™ II flow cytometer (BD Biosciences, San Jose, Calif.), FACSDiva™ software (BD Biosciences, San Jose, Calif.) and FlowJo™ software (Treestar, Inc., Ashland, Oreg.) were used to analyze the uptake of particles by various cell populations. Live cells were gated on by their FSC and SSC properties in order to estimate the degree of cell death. Particle uptake was quantified by determining the percentage of live cells taking up particles. Unstimulated cells were used as controls.
In general terms: In flow cytometry, cells or beads pass a laser one at a time.

In experiment [1] the test system is Bone marrow-derived macrophages (iBMMs). The experiment is described as follows: Flow cytometry uptake of lectin-conjugated NR-PS particles by live iBMMs (Example 6). In kind it is cell-based. Particulars: 10 minute incubation; lectin 100 μg/ml. As to the method:
as §1, §2

For experiment [2], the system named is C57BL/6 splenocytes, T cells (CD3+). The experiment is described as follows: Lectin-conjugated NR-PS particle uptake by splenocyte populations (Example 8): T cells. Particulars: lectin 100 μg/ml; live cells. The class given is cell-based, mouse. As to the method: (§3) Splenocytes were isolated from C57BL/6 mice and cultured as described above, at a density of 2×10^6 cells/ml in a 96 well U-bottomed plate, in 100 μl of complete RPMI 1640 medium. Cells were incubated for 5, 10 or 30 minutes at 37° C. with NR-PS particles (5, 50 or 100 μg/ml) or NR-PS particles (5, 50 or 100 μg/ml) conjugated with biotinylated UEA-1 (100 μg/ml), biotinylated SBA (100 μg/ml), biotinylated PHA-E ([…]), biotinylated PHA-L (100 μg/ml) or biotinylated DSL (100 μg/ml). Cells were transferred to FACS tubes, washed in FACS buffer, centrifuged at 1200 rpm for 5 minutes (×3) and resuspended in 100 μl FACS buffer. Cells were then incubated with Fc Block™ (2.5 μg/ml; BD Pharmingen, San Diego, Calif.) for 10 minutes. Determination of cell types was achieved by labelling characteristic cell surface markers with fluorescently-labelled antibodies—T cells were determined as being CD3^+, dendritic cells CD11c^+, macrophages F4/80^+, granulocytes Gr1^+ and B cells CD19^+. Cells were incubated on ice for 30 minutes in the dark and then washed in FACS buffer and centrifuged at 1200 rpm for 5 minutes (×3). After washing, cells were resuspended in 200 μl of FACS buffer.
(§4) A CyAn™ ADP flow cytometer (Beckman Coulter, Inc., Miami, Fla.), Summit™ software (Dako North America, Inc., Carpinteria, Calif.) and FlowJo™ software (Treestar, Inc., Ashland, Oreg.) were used to analyze the uptake of particles by various cells populations. Live cells were gated on by their FSC and SSC properties in order to roughly estimate the degree of cell death. Particle uptake was calculated for each cell subtype from the data in FIGS. 11A-11D, showing the percentages of both cell marker- and particle-positive cells within the live cell population. Unstimulated cells were used as controls.

Experiment [3] concerns C57BL/6 splenocytes, dendritic cells (CD11c+). The experiment is described as follows: Lectin-conjugated NR-PS particle uptake by splenocyte populations (Example 8): dendritic cells. In kind it is cell-based, mouse. Particulars: lectin 100 μg/ml; live cells. The method, then:
as §3, §4

Experiment [4] concerns C57BL/6 splenocytes, macrophages (F4/80+). The experiment in a line: Lectin-conjugated NR-PS particle uptake by splenocyte populations (Example 8): macrophages. Particulars: lectin 100 μg/ml; live cells. In kind it is cell-based, mouse. The method, then: as §3, §4
In experiment [5] the test system is C57BL/6 splenocytes, granulocytes (Gr1+). The experiment is described as follows: Lectin-conjugated NR-PS particle uptake by splenocyte populations (Example 8): granulocytes. In kind it is cell-based, mouse. Particulars: lectin 100 μg/ml; live cells. As to the method: as §3, §4
Experiment [6] deals with C57BL/6 splenocytes, B cells (CD19+). The experiment in a line: Lectin-conjugated NR-PS particle uptake by splenocyte populations (Example 8): B cells. The class given is cell-based, mouse. Particulars: lectin 100 μg/ml; live cells. The method, then:
as §3, §4

Experiment [7] deals with IL-1α production by bone marrow-derived dendritic cells (BMDCs). The experiment is described as follows: IL-1α ELISA on supernatants of BMDCs incubated with particles. The class given is cell-based, mouse. Particulars: C57BL/6 BMDCs; LPS 1 ng/ml; serial dilutions SC-PS 31.25 μg/ml to 1 mg/ml with lectin 1.56 to 50 μg/ml; vs unconjugated SC-PS. As to the method:
(§5) BMDCs were isolated and cultured as described in Example 2 at a density of 6.25×10^5 cells/ml in 96 well U-bottomed microplates. Cells were stimulated with a Toll-like receptor (TLR) ligand (LPS or Pam2CSK4) for 6 hours. Cells were then incubated with either medium, alum/SC-PS particles, alum/SC-PS particles conjugated with UEA-1, alum/SC-PS particles conjugated with UEA-1 mimetic or with UEA-1 alone for 24 hours. After incubation, supernatants from BMDCs were collected and cytokine concentrations measured by ELISA. Antibody pairs specific for each cytokine were used for immunoassaying. The following cytokines were measured by immunoassay: IL-1α, IL-1β.
(§6) Capture antibodies were obtained from BD Pharmingen (San Diego, Calif.), BioLegend (San Diego, Calif.) and R&D Systems, Inc. (Minneapolis, Minn.) and prepared according to the manufacturer's specifications (see Table 2) and a volume of 40 μl/well added to high-binding 96 well ELISA plates. Plates were then incubated for 2 hours at 37° C. or overnight at 4° C. After incubation, plates were washed in PBS-T (×3) and tapped dry. Plates were then blocked with the appropriate blocking solution (see Table 2) and incubated for 2 hours at 37° C. After incubation plates were washed in PBS-T (×3) and tapped dry. Supernatants were transferred from cell culture plates to fresh 96 well plates. All supernatants were stored at −20° C. when not in use. Cell supernatants were applied to plates at the indicated dilutions (see Table 2). A blank triplicate was left on each plate containing the diluent as a blank. Standards were prepared at the starting concentration in the recommended diluent as specified by the manufacturer and transferred to a 96 well plate and serial dilutions (1:2) performed (see Table 2). All standards and samples were applied to plates at 40 μl/well total volume for incubation overnight at 4° C. After incubation plates were washed with PBS-T (×5) and tapped dry. […] Plates were then stopped by the addition of 20 μl/well of 1M H2SO4 and read. […]
Background: An ELISA detects its analyte on a solid surface through an enzyme-linked reagent.

The subject of experiment [8] is IL-1β production by bone marrow-derived dendritic cells (BMDCs). The experiment in a line: IL-1β ELISA on supernatants of BMDCs incubated with particles. In kind it is cell-based, mouse. Particulars: C57BL/6 BMDCs; LPS 1 ng/ml; serial dilutions SC-PS 31.25 μg/ml to 1 mg/ml with lectin 1.56 to 50 μg/ml; vs unconjugated SC-PS. The method, then: as §5, §6

Consider “NR-PS particles conjugated with biotinylated SBA: Nile Red streptavidin-coated polystyrene particles conjugated with biotinylated soybean agglutinin”, for which the “percentage of live BMDCs found to have taken up particles” value (from here on “percentage of live BMDCs found”) with C57BL/6 BMDCs is listed as 83.2%. For the same molecule, in experiment [1], the “percentage of live iBMMs found to have taken up particles” value (“percentage of live iBMMs found” for short) is listed as 93.4%. Besides, the “percentage of T cells found to have taken up particles” value (“percentage of T cells found” for short) in experiment [2] was 6.4%. Besides, the “percentage of dendritic cells found to have taken up particles” value (from here on “percentage of dendritic cells found”) in experiment [3] is given as 56.3%. For the same molecule, the “percentage of macrophages found to have taken up particles” value (from here on “percentage of macrophages found”) in [4] is recorded as 84.8%. Also, the “percentage of granulocytes found to have taken up particles” value (from here on “percentage of granulocytes found”) in experiment [5] is 65.6%. The “percentage of B cells found to have taken up particles” value (shortened to “percentage of B cells found”) in experiment [6] turned out to be 70.8%.
Turning to “NR-PS particles conjugated with biotinylated PHA-E: Nile Red streptavidin-coated polystyrene particles conjugated with biotinylated Phaseolus vulgaris erthyroagglutinin”, the “percentage of live BMDCs found” value with C57BL/6 BMDCs is 89.7%. The “percentage of live iBMMs found” value in experiment [1] came out at 91.0%. Moreover, the “percentage of T cells found” value in experiment [2] turned out to be 18.1%. Besides, the “percentage of dendritic cells found” value in experiment [3] was found to be 67.7%. Moreover, the “percentage of macrophages found” value in experiment [4] amounted to 79.4%. Besides, the “percentage of granulocytes found” value in experiment [5] is on record as 74.0%. In addition, in experiment [6], the “percentage of B cells found” value stood at 45.5%.
With “NR-PS particles conjugated with biotinylated PHA-L: Nile Red streptavidin-coated polystyrene particles conjugated with biotinylated Phaseolus vulgaris leukoagglutinin”, the “percentage of live BMDCs found” value with C57BL/6 BMDCs is listed as 89.6%. Besides, in experiment [1], the “percentage of live iBMMs found” value came to 79.6%. In [2], the “percentage of T cells found” value came out at 62.4%. The “percentage of dendritic cells found” value in experiment [3] was determined as 79.0%. The “percentage of macrophages found” value in experiment [4] is reported as 89.9%. Further, the “percentage of granulocytes found” value in experiment [5] is reported as 80.7%. The “percentage of B cells found” value in experiment [6] was 80.5%.

B1: PNA: SC-PS particles conjugated with biotinylated peanut agglutinin (conjugate, UniProt P02872 24-273, looked up)
Galactose-binding lectin: AETVSFNFNSFSEGNPAINFQGDVTVLSNGNIQLTNLNKVNSVGRVLYAMPVRIWSSATGNVASFLTSFSFEMKDIKDYDPADGIIFFIAPEDTQIPAGSIGGGTLGVSDTKGAGHFVGVEFDTYSNSEYNDPPTDHVGIDVNSVDSVKTVPWNSVSGAVVKVTVIYDSSTKTLSVAVTNDNGDITTIAQVVDLKAKLPERVKFGFSASGSLGGRQIHLIRSWSFTSTLITTTRRSIDNNEKKIMNMASA
modifications: biotinylated, on streptavidin polystyrene particles
notes: SC-PS particles conjugated with biotinylated peanut agglutinin
As for B1, the “TLR-4 agonist-primed IL-1α production” value in experiment [7] is “increased IL-1α production across all five of the serial dilutions”. Further, the “TLR-4 agonist-primed IL-1β production” value in experiment [8] is reported as “increased”.
